Experimental data published in patent publication US8691789B2, “Probe of iodine-123 marker thymidine (FLT)analogue [123I]-IaraU” (Atomic Energy Council-Institute of Nuclear Research, priority 2012, dated 2014).
“Also recorded” adds a separate entry of the source.

How the values were obtained:
Assay type in all cases: cell-based
NG4TL4-wild type cells = test: cellular uptake experiment of [^123I]-IaraU in NG4TL4-wild type cells
Protocol: (§1) Please refer to FIG. 3 which is a schematic view of experimental results of cell absorption of [^123I]-IaraU according to the invention. As shown, the present invention utilizes the above synthesized iodine-123 marker FLT analogue for in vitro experiments which totally use cells of NG4TL4-wild type, NG4TL4-HSVtk, NG4TL4-sr39tk. They are cultivated in the DMEM (Dulbecco's Modified Eagle's Medium) medium containing 10% fetal bovine serum at 37° C. and in the environment having 5% carbon dioxide. Then they are planted in 96-well plate at the proportion of 1×10^5 cells/well for 12 hours, and then subjected to biological experiments.
(§2) Before the cellular uptake experiment starts, 1 mCi of the above [^123I]-IaraU 8 or [^18F]-FLT (from INER) is thoroughly mixed with 50 ml of serum-free DMEM medium. The cultivated medium on the 96-well plate is drained out, and the aforementioned cultivated medium mixed with radioactive material is immediately added material with the ratio of 200 μl/well. The cells to which the cultivated medium has been added are placed back to an incubator of 5% CO2 at 37° C. […] Finally, a Gamma-Counter is used to measure the radioactivity of cytoplasm for each individual supernatant. The formula for analysis is as follows: (Radioactivity of cytoplasm/Activity as whole)×100%.

NG4TL4-HSVtk cells = test: cellular uptake experiment of [^123I]-IaraU in NG4TL4-HSVtk cells
Protocol: as §1, §2

NG4TL4-sr39tk cells = test: cellular uptake experiment of [^123I]-IaraU in NG4TL4-sr39tk cells
Protocol: as §1, §2

[1] = after five hours, % of the total amount
[2] = time points 0.25, 0.5, 1.5, 3 and 5 hours

Compound: O=c1[nH]c(=O)n([C@@H]2O[C@H](CO)C(O)C2O)cc1[123I] (stereo partly drawn) [[^123I]-IaraU, 1-(β-D-arabinofuranosyl)-5-[^123I]iodopyrimidin-2,4(3H)-dione]
- maximum intake (radioactivity of cytoplasm/activity as whole ×100%) (NG4TL4-wild type cells; [1]): not more than 10%
- cellular uptake over time (in words) (NG4TL4-wild type cells; [2]): no significant intake; also recorded: no significant increase in quantity
- maximum intake (radioactivity of cytoplasm/activity as whole ×100%) (NG4TL4-HSVtk cells; [1]): not more than 10%
- cellular uptake over time (in words) (NG4TL4-HSVtk cells; [2]): no significant intake; also recorded: no significant increase in quantity
- maximum intake (radioactivity of cytoplasm/activity as whole ×100%) (NG4TL4-sr39tk cells; [1]): not more than 10%
- cellular uptake over time (in words) (NG4TL4-sr39tk cells; [2]): no significant intake; also recorded: no significant increase in quantity
